Experimental data from patent US20130005699A1, “METHODS AND PRODUCTS FOR TREATMENT OF DISEASES” (DMI ACQUISITION CORP., priority 2009, published 2013).

Tests used:
[1] = tested on: HUVECs; test: HUVEC tube formation on matrigel plugs; type: cell-based, human; conditions: 18 hours, 5% FCS
Experimental: To investigate the formation of capillary-like structures by HUVECs, the Angiogenesis System Endothelial Cell Tube Formation Assay was purchased from BD Biosciences (San Jose, Calif.) and used according to the manufacturer's protocol. In brief, 100,000 HUVECs were seeded onto rehydrated matrigel plugs in 96 well tissue culture plates in the presence of 5% FCS to induce tube formation. […] After 18 hours the wells were photographed using a Kodak DCS Pro SLR/N digital camera (Rochester, N.Y.) mounted on an inverted microscope. Ethanol treated wells were included to determine if the vehicle had any effects on cell differentiation.

[2] = tested on: HUVECs; test: HUVEC invasion (BioCoat Matrigel Invasion Chambers); type: cell-based, human; conditions: 24 hours
Experimental: BioCoat Matrigel Invasion Chambers were purchased from BD Biosciences (San Jose, Calif.). Inserts were rehydrated at 37° C. with 500 μl HBSS for 2 hours prior to use in humidified incubator. Trypsinized HUVECs were washed twice with warm EGM-2 containing 0.1% FCS and added to the upper chamber of the invasion insert at 100,000 cells in a total volume of 250 μl. […]. Non-invasive cells were removed from the upper chamber with moistened cotton swabs and then the inserts were washed twice with HBSS. The inserts were then submerged in 10 μM calcein AM prepared in HBSS and incubated for 4 hours. Fluorescence was determined in a microplate reader at 485 nm excitation and 595 nm emission.
All data is presented as representative experiment done in triplicate. Differences between subsets were analyzed using student t-test in Microsoft Excel. P<0.05 was considered statistically significant.

[3] = tested on: HUVECs; test: HUVEC scratch migration assay; type: cell-based, human; conditions: for Mean pixels (gap): 24 hours, diluent control 1264.00
Experimental: Passage 8 HUVECs, lot number 8750 (obtained from Lonza), were plated in 6-well plates (ICS BioExpress) in endothelial growth medium-2 (EGM-2) complete medium (obtained from Lonza). […] The monolayers were then “scratched” with a 1000 μl pipet tip and washed two times with warm EGM-2 medium. […] The wells were photographed again. The gaps were measured in each photograph using Adobe Photoshop software, and gap measurements are presented as the number of pixels in the gap.

[4] = tested on: human retinal endothelial cells; test: TER of endothelial cell monolayers (Example 4), retinal; type: cell-based; conditions: Danazol 1.0 μM, TER measurements/cm^2 of insert, blank subtracted
Experimental: (§1) […]. Assays were also performed in the same manner using passage 8 human brain endothelial cells and passage 8 human umbilical vein endothelial cells.
(§2) An initial TER measurement was taken for each insert using EVOM^2 voltohmmeter connected to an STX100 electrode (both from World Precision Instruments). Measurements were also taken at 24, 48, 72 and 144 hours. All data are presented as TER measurements/cm^2 of insert with TER of blank inserts subtracted.

[5] = tested on: Human Brain Endothelial Cells; test: TER of endothelial cell monolayers (Example 4), brain; type: cell-based; conditions: Danazol 1.0 μM, TER measurements/cm^2 of insert, blank subtracted
Experimental: as §1, §2

[6] = tested on: Human Umbilical Vein Endothelial Cells; test: TER of endothelial cell monolayers (Example 4), umbilical vein; type: cell-based; conditions: Danazol 1.0 μM, TER measurements/cm^2 of insert, blank subtracted
Experimental: as §1, §2

[7] = tested on: human retinal endothelial cells; test: ECIS resistance (Example 12), retinal cells
[8] = tested on: human renal glomerular microvascular endothelial cells; test: ECIS resistance (Example 12), glomerular cells; conditions: danazol 1 μM alone
[9] = tested on: human renal glomerular microvascular endothelial cells; test: Actin stress fiber formation (Example 11), glomerular cells; conditions: for F-actin staining pattern: danazol 1 μM alone
[10] = tested on: human renal glomerular microvascular endothelial cells; test: ECIS resistance (Example 13), glomerular cells, medium without dexamethasone
[11] = tested on: human retinal endothelial cells; test: Actin stress fiber formation, rhodamine-phalloidin staining, TNFα (Example 7); conditions: 30 minutes
[12] = tested on: human retinal endothelial cells; test: TER of retinal endothelial cell monolayers with danazol and steroid receptor antagonists (Example 6); conditions: 0.1 μM of each additive, background subtracted, divided by 0.33 cm^2
[13] = tested on: human retinal endothelial cells; test: TER of retinal endothelial cell monolayers with danazol, steroid receptor antagonists and hormones (Example 10); conditions: 0.1 μM of each additive, background subtracted, divided by 0.33 cm^2

For `C#C[C@]1(O)CC[C@H]2[C@@H]3CCC4=Cc5oncc5C[C@]4(C)[C@H]3CC[C@@]21C` [Danazol, 17α-pregna-2,4-dien-20-yno[2,3-d]-isoxazol-17β-ol], the “effect on tube formation” value ([1]; 1 μM) was “no effect on tube formation”, the “effect on tube formation” value ([1]; 10 μM) was “no effect on tube formation” and the “effect on tube formation” value ([1]; 50 μM) was “effective inhibitor of tube formation”. For the same molecule, the “effect on FCS-induced cell invasion” value ([2]; 10 μM) was “no effect”, the “effect on FCS-induced cell invasion” value ([2]; 100 μM) was “no effect” and the “Mean pixels (gap)” value ([3]; Danazol 10 μM) was 1004.00 pixels. For the same molecule, the “Mean pixels (gap)” value ([3]; Danazol 25 μM) was 1184.00 pixels, the “Mean pixels (gap)” value ([3]; Danazol 50 μM) was 895.33 pixels and the “Mean pixels (gap)” value ([3]; Danazol 75 μM) was 317.33 pixels. For the same molecule, the “Mean pixels (gap)” value ([3]; Danazol 100 μM) was 178.67 pixels, the inhibition at 10 µM ([3]; Homo sapiens, HUVEC, 24 h) was 21.1% and the inhibition at 25 µM ([3]; Homo sapiens, HUVEC, 24 h) was 5.5%. It also gave an inhibition at 50 µM ([3]; Homo sapiens, HUVEC, 24 h) of 27.6%, an inhibition at 75 µM ([3]; Homo sapiens, HUVEC, 24 h) of 74.6% and an inhibition at 100 µM ([3]; Homo sapiens, HUVEC, 24 h) of 85.9%. For the same molecule, the “TER at 0 Hours” value ([4]; None 32.3) was 21.7, the “TER at 24 Hours” value ([4]; None 96.0) was 132.3 and the “TER at 48 Hours” value ([4]; None 144.4) was 182.3. For the same molecule, the “TER at 72 Hours” value ([4]; None 148.0) was 217.7, the “TER at 144 Hours” value ([4]; None 219.7) was 234.8 and the “TER at 0 Hours” value ([5]; None 41.4) was 32.3. For the same molecule, the “TER at 24 Hours” value ([5]; None 115.7) was 139.9, the “TER at 144 Hours” value ([5]; None 151.5) was 125.8 and the “TER at 72 Hours” value ([5]; None 154.0) was 149.5. The “TER at 48 Hours” value ([5]; None 176.3) was 188.4, the “TER at 0 Hours” value ([6]; None 82.3) was 70.2 and the “TER at 24 Hours” value ([6]; None 217.2) was 246.0. For the same molecule, the “TER at 72 Hours” value ([6]; None 226.8) was 270.7, the “TER at 144 Hours” value ([6]; None 227.3) was 286.4 and the “TER at 48 Hours” value ([6]; None 276.3) was 364.1. For the same molecule, the “start of increase of ECIS compared to untreated cells, after treatment” value ([7]; 1.0 μM danazol alone) was 1.5 to 2.0 h, the “persistence of increased ECIS” value ([7]; 1 μM of each compound, monitored for 90 hours) was 5 h and the “period of greatest increase of ECIS” value [8] was 60 to 90 h. The F-actin staining pattern ([9]; 15 minutes) was “perinuclear staining”, the F-actin staining pattern ([9]; 3 hours) was “diffuse staining throughout the cells with ruffled edges on many of the cells” and the F-actin staining pattern ([9]; 24 hours) was “staining similar to untreated controls”. The “effect on S1P-induced cortical actin rings” value ([9]; danazol 1 μM with S1P 1 μM) was “seemed to enhance the cortical rings”, the “effect on TNFα-induced stress fibers” value ([9]; danazol 1 μM with TNFα 1 ng/ml, all times) was “decreased the stress fiber formation and the thickness of the fibers at all times” and the “persistence of increased ECIS” value ([10]; danazol 1 μM alone) was “about 90 hours”. For the same molecule, the “start of increase of ECIS compared to untreated cells” value ([10]; danazol 1 μM alone) was “about 3 hours”, the “enhancement of ECIS (TER) compared to dexamethasone” value ([10]; danazol 1 μM versus dexamethasone 1 μM) was “not as great” and the “effect on stress fiber development with TNFα” value ([11]; danazol 0.1 μM or 10 μM, TNFα 50 ng/ml) was “decreased the number of cells exhibiting stress fiber development”. For the same molecule, the F-actin staining pattern ([11]; danazol 0.1 μM) was “diffuse staining throughout the cytoplasm”, the F-actin staining pattern ([11]; danazol 10.0 μM) was “stress fibers with multiple focal points” and the “TER at 30 minutes” value ([12]; None 216.22) was 255.26. For the same molecule, the “TER at 120 minutes” value ([12]; None 234.23) was 249.35, the “TER at 60 minutes” value ([12]; None 249.25) was 267.27 and the “TER at 24 Hours” value ([12]; None 312.31) was 366.37. The “TER at 5 minutes” value ([13]; None 250.30) was 280.03, the “TER at 60 minutes” value ([13]; None 251.00) was 313.06 and the “TER at 30 minutes” value ([13]; None 262.31) was 311.56. The “TER at 24 Hours” value ([13]; None 287.09) was 348.35.
